Laboratory results taken from patent US4599325A, “Substituted tyrosyl alanine dipeptide amides” (G. D. Searle & Co., priority 1985, dated 1986).
Counter-ions that a name gives are not always drawn. Like-named read-outs stand apart in the source and are kept apart here.

Tests used:
mice = test: Combined tail flick and hot plate tests: hot plate; assay type: in vivo, mouse; settings: for activity in hot plate test of combined tests: oral and subcutaneous, prior art at doses as great as 100 mg/kg p.o. and 50 mg/kg s.c.; for ED50: Mus musculus, combined tail flick/hot plate
Description: Male albino inbred mice supplied by Charles River (CD-1/HAM/1LR) weighing between 20 and 30 grams were used. Analgesia was first measured using the tail flick test in which a high intensity beam of light was focused on the blackened tail. The interval of time between onset of the light and reflex removal of the tail was defined as the tail flick latency. The average of two successive determinations was recorded. Following tail flick determination, the animals were immediately placed on a 55° C. copper hot plate to which they were restricted by an inverted 600 ml glass beaker. Hot plate latency was defined as the interval between placement on the hot plate and a behavioral response of either a jump or a hindpaw lick. One determination was recorded. Mice not responding within 4.0 seconds on the tail flick and 20.0 seconds on the hot plate were discarded from the study. The tail flick test and the hot plate test were stopped after 12.0 and 40 seconds, respectively, had elapsed to prevent tissue damage. After determination of pre-injection baseline latencies, the test compound was dissolved in distilled water and administered either orally or subcutaneously (0.1 ml/10 gram body weight). Tail flick and hot plate latencies were measured 10, 30, 60 and 90 minutes after injection. One-way analyses of variance were used to detect any significant increase in tail flick and hot plate latencies (indicative of analgesia) as compared to latencies prior to drug adminstration, as well as to establish the dose-dependence of any effect. A linear regression method (least squares) was used to determine the line of best fit. The ED50 dose was determined to be that dose of test compound that produced one-half the maximum measurable increase in latency. This corresponded to a post-drug tail flick latency of 7.5 seconds and hot plate latency of 25 seconds. G. Keppel: Design and analysis: a researcher's handbook, New Jersey, Prentice-Hall, 1973.

rat cholera model = test: Cholera-induced intestinal fluid secretion (rat cholera model); assay type: in vivo
Description: The rat cholera model was used to determine the effect of the test compounds on intestinal fluid movements. (H. I. Jacoby and C. H. Marshall, Antagonism of Cholera Enterotoxin by Anti-inflammatory Agents in the Rat. Nature, 235, 163-165, 1972). Female Charles River rats weighing 85-100 grams and having free access to water were fasted for 24 hours prior to each experiment. After a midline incision was made under ether anesthesia, a 20-cm ligated small intestinal segment was constructed starting 3 cm distal to the ligament of Treitz. Each segment was injected, using a 27 gauge 1/2-inch needle, with crude cholera toxin in a 0.9% saline solution. Thirty minutes before cholera toxin was injected, test compounds were administered subcutaneously to groups of four rats at doses of 10 and 20 mg/kg. Four hours after injection of toxin, the animals were sacrificed and the fluid content and exact length of the intestinal segments were measured. Fluid secretion was expressed in ml/cm of intestine.
The ID50 's of these compounds were estimated using data obtained from at least two doses and at least two experiments by the method of maximum likelihood. R. A. Fischer. "Principles of Statistical Estimation." in Statistical Methods for Research Workers, 14th ed. Hafner: New York; pp. 301-339. […]

Row | Compound | Hot Plate, activity at stated dose s.c. (mice; 50 mg/kg s.c.) | Hot Plate, activity at stated dose p.o. (mice; 100 mg/kg p.o.) | activity in hot plate test of combined tests (mice) | Rat Cholera Test, activity at stated dose (rat cholera model; 20 mg/kg s.c.) | ED50 (mice; po, p.o., read-out: Hot Plate (ED50) p.o.) | ED50 (mice; sc, s.c., read-out: Hot Plate (ED50) s.c.) | ED50 (rat cholera model; Rattus norvegicus, sc, read-out: Rat Cholera Test (ED50))
1 | tyrosine-D-alanine-phenylpropylamide [Prior Art, reference compound] | Inactive | Inactive | not active | Inactive |  |  | 
2 | Cc1cc(O)cc(C)c1C[C@H](N)C(=O)N[C@H](C)C(=O)NCCCc1ccccc1 [Example 5, 2,6-dimethyltyrosyl-N-(3-phenylpropyl)-D-alaninamide, hydrochloride] |  |  | active |  | 52 mg/kg | 9 mg/kg | 6.1 mg/kg
